Measured values taken from US7479471B2, “2-Amino-4-bicyclylamino-6H-1,3,5-triazines, processes for their preparation and their use as herbicides and plant growth regulators” (Bayer CropScience GmbH, priority 2002, dated 2009).

Assays:
Type in all cases: in vivo
[1] = test system: monocotyledonous and dicotyledonous weed plants; experiment: Pre-emergence herbicidal action (greenhouse pot test); conditions: pre-emergence method; application rate of 0.5 kg and less of active substance per hectare; Sinapis alba, Chrysanthemum segetum, Avena sativa, Stellaria media, Echinochloa crus-galli, Lolium multiflorum, Setaria spp., Abutilon theophrasti, Amaranthus retrofluxus, Panicum miliaceum
Description: Seeds or rhizome pieces of monocotyledonous and dicotyledonous weed plants are placed in sandy loam in plastic pots and covered with soil. The compounds according to the invention, which are formulated in the form of wettable powders or emulsion concentrates, are then applied to the surface of the soil cover as aqueous suspension or emulsion at various dosages with an application rate of 600 to 800 l of water/ha (converted).
After the treatment, the pots are placed into a greenhouse and kept under good growth conditions for the weeds. The plant or emergence damage is scored visually after the untreated controls have emerged. As shown by the test results, the compounds according to the invention have good herbicidal pre-emergence activity against a broad spectrum of weed grasses and broad-leaved weeds.

[2] = test system: monocotyledonous and dicotyledonous weeds; experiment: Post-emergence herbicidal action (greenhouse pot test); conditions: post-emergence method; application rate of 0.5 kg or less of active substance per hectare; scored after approx. 3 to 4 weeks; Sinapis alba, Echinochloa crus-galli, Lolium multiflorum, Chrysanthemum segetum, Setaria spp., Abutilon theophrasti, Amaranthus retroflexus, Panicum miliaceum, Avena sativa
Experimental: Seeds or rhizone pieces of monocotyledonous and dicotyledonous weeds are placed in sandy loam in plastic pots, covered with soil and grown in the greenhouse under good growth conditions. Three weeks after sowing, the test plants are treated at the three-leaf stage. Various dosages of the compounds according to the invention, which are formulated as wettable powders or emulsion concentrates, are sprayed onto the green plant parts at an application rate of 600 to 800 l of water per ha (converted), and after the test plants have been left to stand in the greenhouse for approx. 3 to 4 weeks under optimum growth conditions, the effect of the preparations is scored visually by comparison with untreated controls. The compositions according to the invention also have good herbicidal post-emergence activity against a broad spectrum of economically important weed grasses and broad-leaved weeds.

[3] = test system: harmful plants which are typical for rice crops; experiment: Action against harmful plants in rice (paddy rice conditions); conditions: applied to the paddy water; approximately three weeks after application; Cyperus monti, Echinochloa crus-galli, Eleocharis acicularis, Sagittaria pygmaea; also: test concentration or dose not given here
Experimental: Transplanted and seeded rice and typical rice weeds are grown in the greenhouse until they have reached the three-leaf stage (Echinochloa 1.5-leaves) under paddy rice conditions (flooding level of the water: 2-3 cm) in closed plastic pots. They are then treated with the compounds according to the invention. To this end, the formulated active substances are suspended, dissolved or emulsified in water and applied to the paddy water of the test plants at various dosages by application by pouring.
After the treatment has been carried out in this way, the test plants are placed into the greenhouse under optimum growth conditions and are kept in this way over the entire experimental period.

[4] = test system: crop plants; experiment: Crop plant tolerance (greenhouse, pre- and post-emergence); conditions: visual scoring four to five weeks after application
Experimental: In further greenhouse experiments, seeds of a relatively large number of crop plants and weeds are placed in sandy loam and covered with soil. Some of the pots are treated immediately as described in Section 1, while the remaining pots are placed in the greenhouse until the plants have developed two to three real leaves, and they are then sprayed with various dosages of substances of the formula (I) according to invention as described in Section 2. Four to five weeks after the application and standing time in the greenhouse, it is found by means of visual scoring that the compounds according to the invention leave dicotyledonous crops such as, for example, soybeans, cotton, oilseed rape, sugar beet and potatoes unharmed when applied pre- and post-emergence, even at high rates of active compound. In addition, some substances also leave graminaceous crops such as, for example, barley, wheat, rye, sorghum, corn or rice, unharmed.

SMILES	herbicidal action against harmful plants, scored visually [1]	herbicidal action against harmful plants, scored visually [2]	herbicidal action against harmful plants typical for rice crops, scored visually [3]	selectivity (crop plants versus weeds) [4]
Nc1ncnc(NC2CCc3ccccc32)n1 (stereo not shown) [Example 185]	very good herbicidal action	very good herbicidal action	very good herbicidal action	in some cases high selectivity
CCC1Cc2ccc(C)cc2C1Nc1ncnc(N)n1 (stereo not shown) [Example 291]	very good herbicidal action	very good herbicidal action	very good herbicidal action	in some cases high selectivity
CC1Cc2cc(Cl)ccc2C1Nc1ncnc(N)n1 (stereo not shown) [Example 58]	very good herbicidal action	very good herbicidal action	very good herbicidal action	in some cases high selectivity
Cc1ccc2c(c1)C(Nc1ncnc(N)n1)CC2 (stereo not shown) [Example 146]	very good herbicidal action	very good herbicidal action	very good herbicidal action	in some cases high selectivity
CC1Cc2cc(F)ccc2C1Nc1ncnc(N)n1 (stereo not shown) [Example 55]	very good herbicidal action	very good herbicidal action	very good herbicidal action	in some cases high selectivity
CC(=O)Nc1ncnc(NC2c3cc(F)ccc3CC2C)n1 (stereo not shown) [Example 283]	very good herbicidal action	very good herbicidal action	very good herbicidal action	in some cases high selectivity
CC1Cc2ccc(F)cc2C1Nc1ncnc(NC(=O)C(F)(F)F)n1 (stereo not shown) [Example 285]	very good herbicidal action	very good herbicidal action	very good herbicidal action	in some cases high selectivity
Cc1cc(C)c2c(c1)C(Nc1ncnc(N)n1)CCO2 (stereo not shown) [Example 4]	very good herbicidal action	very good herbicidal action	very good herbicidal action	in some cases high selectivity
CC1Cc2ccc(F)cc2C1Nc1ncnc(N)n1 (stereo not shown) [Example 282]	very good herbicidal action	very good herbicidal action	very good herbicidal action	in some cases high selectivity
Cc1ccc2c(c1C)CCCC2Nc1ncnc(N)n1 (stereo not shown) [Example 19]	very good herbicidal action	very good herbicidal action	very good herbicidal action	in some cases high selectivity
CC1Cc2ccccc2C1Nc1ncnc(N)n1 (stereo not shown) [Example 198]	very good herbicidal action	very good herbicidal action	very good herbicidal action	in some cases high selectivity
Cc1cccc2c1OCCC2Nc1ncnc(N)n1 (stereo not shown) [Example 5]	very good herbicidal action	very good herbicidal action	very good herbicidal action	in some cases high selectivity
Cc1cc2c(cc1C)C(Nc1ncnc(N)n1)C(C)C2 (stereo not shown) [Example 293]	very good herbicidal action	very good herbicidal action	very good herbicidal action	in some cases high selectivity
Cc1cc(C)c2c(c1)C(Nc1ncnc(N)n1)CCS2 (stereo not shown) [Example 79]	very good herbicidal action	very good herbicidal action	very good herbicidal action	in some cases high selectivity
Cc1cc(C)c2c(c1)C(Nc1ncnc(N)n1)CCC2 (stereo not shown) [Example 1]	very good herbicidal action	very good herbicidal action	very good herbicidal action	in some cases high selectivity
Cc1ccc2c(c1)C(Nc1ncnc(N)n1)C(C)(C)C2 (stereo not shown) [Example 292]	very good herbicidal action	very good herbicidal action	very good herbicidal action	in some cases high selectivity
Cc1cccc2c1C(Nc1ncnc(N)n1)C(C)C2 (stereo not shown) [Example 290]	very good herbicidal action	very good herbicidal action	very good herbicidal action	in some cases high selectivity
Cc1cc(F)cc2c1OCCC2Nc1ncnc(N)n1 (stereo not shown) [Example 288]	very good herbicidal action	very good herbicidal action	very good herbicidal action	in some cases high selectivity
Cc1ccc2c(c1)C(Nc1ncnc(N)n1)C(C)C2 (stereo not shown) [Example 281]	very good herbicidal action	very good herbicidal action	very good herbicidal action	in some cases high selectivity
